We go through three molecules from patent publication US20240270771A1, “Compound containing phosphate group, pharmaceutical composition containing same, preparation method therefor and use thereof” (SHANGHAI RAISING PHARMACEUTICAL CO., LTD., priority 2021, published 2024).

In experiment [1] the test system is memory reproduction disorder model induce by ethanol. The experiment in a line: Dark avoidance test, memory reproduction disorder model induced by ethanol. It counts as in vivo, ICR mice. Conditions: 45% ethanol 0.1 mL/10 g gavage, compound 200 mg/kg gavage once a day 3 weeks; for Number of errors: model group 2.4 ± 1.7; for Latency period: model group 118.4 ± 106.9. As for the experimental part:
(§1) The mice employed in the present test were purchased from Xipuer-BIKAI Laboratory Animal Co., Ltd., and they were SPF grade ICR mice, 3-4 weeks old, weighing 16-18 g.
Anhydrous ethanol: Shanghai Titan Technology Co., Ltd.; Product No.: G73537B; Purity: >99.7%.
(§2) Test article preparation: 100 mg of the compound to be tested was weighed and added to 10 mL of 0.7% CMC-Na to prepare a 10 mg/mL suspension for use.
(§3) The laboratory mice were randomly divided into groups (9 or 10 mice per group). The mice in each group were administrated at a dosage of 0.2 mL/10 g body weight by oral gavage once a day for three weeks.
The laboratory mice animals were administered by gavage for three weeks. One hour after the last administration, they were trained with the YLS-17B dark avoidance tester. The test was performed 24 h later. A 45% ethanol solution (0.1 mL/10 g) was administered by oral gavage 30 min before the test. The latency period (the time from the start of counting to the first time of entering the dark compartment) and the number of errors (number of electric shocks) of the animals were recorded.
The activity box of the dark avoidance automatic tester comprises two compartments (bright and dark), there is a hole between the two compartments, the bottom of the box is covered by a copper grid, and the animals normally go into the dark compartment. Before the formal test, the laboratory mice were trained by placing the animals in the bright compartment with their backs facing the entrance of the hole, to get familiar with the environment for 5 min, and then the copper grid in the dark compartment was electrified for stimulation at a voltage of 50 V and a current of 1.00 mA (which can be adjusted according to the actual situation). When the animals received electric shock, they entered the bright compartment, or went back and forth between the two compartments. The current was continuously applied for 5 min, which served as the training process.
Testing: the mice modeled with ethanol were put into the bright box one by one with their backs facing the entrance of the hole, and the time interval between putting each animal was 5 s. After the first animal was put into the bright compartment, the electricity was applied immediately. The electricity was applied for 6 min. At the end of applying electricity, data were printed, and the latency period (the time from the start of counting to the first time of entering the dark compartment) and the number of errors (the number of electric shock during the testing period) were recorded. Due to the different time of putting the animal in, the time difference can be subtracted according to the actual time of putting the animal.
Statistical analysis: all data were expressed as the mean value±standard deviation, and SPSS software was used for analysis.

Experiment [2] concerns sodium nitrite-induced hypoxic memory impairment model. The experiment in a line: Jumping stand test, sodium nitrite-induced hypoxic memory impairment model. Type of experiment: in vivo, ICR mice. The settings on record: sodium nitrite 120 mg/kg s.c., compound 200 mg/kg gavage once a day 3 weeks; for Number of errors: model group 1.4 ± 0.7; for Latency period: model group 93.8 ± 90.25. Here is the method:
as §1
Sodium nitrite (NaNO2) was purchased from Sinopharm Chemical Reagent Co., Ltd.; Product No.: 10020018; Specification: analytical grade.
as §2, §3
The laboratory animals were administered by gavage for 3 consecutive weeks according to the above administration dosage/specification. Training was started on the last day of administration, and the test was conducted 24 hours later.
The laboratory animals were administered by gavage for three weeks. One hour after the last administration, the animals were trained with YLS-3 TB jumping stand detector. After the training, sodium nitrite (mouse: 120 mg/kg) was injected subcutaneously (in the neck) immediately. The jumping stand test was conducted 24 hours later. The latency period (the time from the start of counting to the first time of jumping off the stand) and the number of errors (the number of electric shock) were recorded.
The YLS-3 TB jumping stand detector were divided into five compartments by transparent boards. The bottom of the compartment was covered with a copper grid and applied with a voltage of 50 V A rubber pad stand with a height of 3.5 cm and a diameter of 3.5 cm was placed in each compartment to serve as a safe area for mice to avoid electric shock. Training of laboratory mice before the formal test: the laboratory mice were placed in the small compartment with a stand to get familiar with the environment for 5 min (the five compartments were connected), and then electrified for stimulation (all the laboratory mice were on the grid at this time), at the voltage of 50 V and current of 1.00 mA. Mice have the habit of jumping from a high place. If they jump, they will be shocked to produce memory. The current was applied for 5 min, which served as the training process.
Testing: the animals were put on the stand in the jumping compartment one by one. The time interval for putting each animal was 5 s. After the first animal was put on the stand, the electricity was applied immediately. The electricity was applied for 6 min. At the end of applying electricity, data were printed, and the latency period (the time from the start of counting to the first time of jumping off the stand) and the number of errors (the number of electric shock during the testing period) were recorded. Due to the different time of putting the animal in, the time difference can be subtracted according to the actual time of putting the animal.

Another experiment concerns Aβ42. The experiment can be described thus: Aβ42 content in culture supernatant of HEK293APP/sw overexpressing cells (ELISA kit). Type of experiment: cell-based. The settings on record: compound 400 μM, 24 hours, adjusted by total protein concentration, blank control 11.08. As for the experimental part: BCA Protein Assay Kit was purchased from Beyotime, Aβ40 and Aβ42 detection kits were purchased from Wako, and cell culture related reagents were purchased from Gibco.
HEK293APP/sw overexpressing cells were cultured in DMEM medium containing 10% FBS, 100 μg/mL G418 (Geneticin) and 1×Penicillin-Streptomycin in 48-well plates. A 4 mM compound stock solution (prepared by dissolving the compound in DMEM culture medium) was filtered through a 0.22 μm sterile filter and stored at −20° C. for subsequent use. At 70% cell density, 40 μL of the compound test solution was added to each well to reach a final concentration of 400 μM, and the plate was incubated for 24 hours.
The supernatant of the culture medium was collected. The BCA reagent was added to a part of the supernatant, after incubating at room temperature for 30 min, the absorbance value (i.e., OD value) of each well was determined by a microplate reader at 570 nm. The total protein concentration was calculated according to a protein standard curve. Meanwhile, the other part of the supernatant (100 μL) was added to a coated 96-well plate and incubated overnight at 4° C., after the solution was removed and the reagents were washed, HRP (horseradish peroxidase)-labeled antibody was added and incubated at 4° C. for 2 hours. After the reagents were removed and washed, a TMB chromogenic solution was added, the plate was incubated at room temperature for 30 min, and then a stop solution was added to stop the reaction. The absorbance value (i.e., OD value) of each well was measured by a microplate reader at 450 nm. The concentrations of Aβ40 and Aβ42 were calculated according to the standard curves of Aβ40 and Aβ42, respectively. In the end, the concentrations of Aβ40 and Aβ42 were adjusted by the total protein concentration, so as to obtain the final concentration.
(In an ELISA, binding on a coated surface is turned into a signal by an enzyme label.)

Regarding `C/C(=C(\CCOP(=O)(O)O)SC(=O)c1ccco1)N(C=O)Cc1cnc(C)nc1N` [Compound 9, (Z)—S-(2-(N-((4-amino-2-methylpyrimidin-5-yl)methyl)formamido)-5-(phosphonooxy)pent-2-en-3-yl) furan-2-carbothioate], the values for the Number of errors in experiment [1] and in experiment [2] were 1.0 ± 1.0 and 0.6 ± 0.7, respectively. Further, the figures for the Latency period in experiment [1] and in experiment [2] were 216.1 ± 76.8 s and 209.3 ± 110.4 s, respectively. Moreover, the “The content of Aβ42” value in the experiment with Aβ42 was found to be 2.94 pmol/L.

`CCCC(CCC)C(=O)S/C(CCOP(=O)(O)O)=C(/C)N(C=O)Cc1cnc(C)nc1N` [Compound 1, (Z)—S-(2-(N-((4-amino-2-methylpyrimidin-5-yl)methyl)formamido)-5-(phosphonooxy)pent-2-en-3-yl) 2-propylpentanethioate]: in experiment [1], the Number of errors worked out at 1.0 ± 1.25 and the Latency period is 229.8 ± 90.0 s. Further, in experiment [2], the Number of errors is on record as 0.4 ± 0.7 and the Latency period turned out to be 228.8 ± 155.9 s. Besides, in the experiment on Aβ42, the “The content of Aβ42” value came out at 3.32 pmol/L.

For `CCC(CC)C(=O)S/C(CCOP(=O)(O)O)=C(/C)N(C=O)Cc1cnc(C)nc1N` [Compound 2, (Z)—S-(2-(N-((4-amino-2-methylpyrimidin-5-yl)methyl)formamido)-5-(phosphonooxy)pent-2-en-3-yl) 2-ethylbutanethioate], in experiment [1], the Number of errors came to 1.2 ± 1.3 and the Latency period was 217.4 ± 96.6 s. In experiment [2], this molecule came in with a Number of errors of 0.6 ± 0.8 and a Latency period of 210.4 ± 117.3 s. Further, the “The content of Aβ42” value in the experiment on Aβ42 stood at 3.34 pmol/L.
